In patent US6355799B1, “Substituted benzene compounds, process for their preparation, and herbicidal and defoliant compositions containing them” (ISK Americas Incorporated, priority 1997, dated 2002):

Columns and labels:
Type in all cases: in vivo
[1] = system: lambsquarters (Chenopodium album, CHEAL); experiment: Pre-emerge test, greenhouse herbicide activity screening; details: pre-emerge, rated 14 days after application, 0 = no damage, 100 = complete death
Summary of the method: (§1)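 Visual ratings on a 0-100 scale (0 no damage, 100 all plants dead) were taken at 14 days after treatment. Rates of 15-1000 g ai/ha in acetone, 187 l/ha, were sprayed onto soil one day after planting (pre-emerge) or onto 2-3 leaf plants with 0.25% v/v surfactant (post-emerge).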

[2] = system: barnyardgrass (Echinochloa crus-galli, ECHCG); experiment: as above; details: pre-emerge, rated 14 days after application, 0 = no damage, 100 = complete death
Summary of the method: as §1

[3] = system: johnsongrass (Sorghum halepense, SORHA); experiment: as above; details: pre-emerge, rated 14 days after application, 0 = no damage, 100 = complete death
Summary of the method: as §1

[4] = system: sicklepod (Cassia obtusifolia, CASOB); experiment: as above; details: pre-emerge, rated 14 days after application, 0 = no damage, 100 = complete death
Summary of the method: as §1

[5] = system: ivyleaf morningglory (Ipomoea hederacea, IPOHE); experiment: as above; details: pre-emerge, rated 14 days after application, 0 = no damage, 100 = complete death
Summary of the method: as §1

[6] = system: velvetleaf (Abutilon theophrasti, ABUTH); experiment: as above; details: pre-emerge, rated 14 days after application, 0 = no damage, 100 = complete death
Summary of the method: as §1

[7] = system: green foxtail (Setaria viridis, SETVI); experiment: as above; details: pre-emerge, rated 14 days after application, 0 = no damage, 100 = complete death
Summary of the method: as §1

[8] = system: large crabgrass (Digitaria sanguinalis, DIGSA); experiment: as above; details: pre-emerge, rated 14 days after application, 0 = no damage, 100 = complete death
Summary of the method: as §1

[9] = system: redroot pigweed (Amaranthus retroflexus, AMARE); experiment: as above; details: pre-emerge, rated 14 days after application, 0 = no damage, 100 = complete death
Summary of the method: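 Sandy loam pots; pre-emerge: sown 1 d pre-spray, surface-watered after, then bottom-watered. Post-emerge: sown 8–21 d before, 2–3 leaf stage, + 0.25% v/v NIS, bottom-watered. Acetone, 187 l/ha track spray, 15–1000 g ai/ha. 0–100 injury score, day 14.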

[10] = system: lambsquarters (Chenopodium album, CHEAL); experiment: Post-emerge test, greenhouse herbicide activity screening; details: phytotoxicity rating 0-100 (0 no damage, 100 complete death), 14 days after application
Summary of the method: (§2)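 Herbicidal damage is scored 0 (none) to 100 (complete plant death) two weeks after a simulated field spray. Rates span 15–1000 g ai/ha, delivered in acetone at 187 l/ha. For post-emergence treatments, plants have 2–3 leaves and the spray carries 0.25% v/v non-ionic surfactant.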

[11] = system: barnyardgrass (Echinochloa crus-galli, ECHCG); experiment: as above; details: phytotoxicity rating 0-100 (0 no damage, 100 complete death), 14 days after application
Summary of the method: as §2

[12] = system: johnsongrass (Sorghum halepense, SORHA); experiment: as above; details: phytotoxicity rating 0-100 (0 no damage, 100 complete death), 14 days after application
Summary of the method: as §2

[13] = system: sicklepod (Cassia obtusifolia, CASOB); experiment: as above; details: phytotoxicity rating 0-100 (0 no damage, 100 complete death), 14 days after application
Summary of the method: as §2

[14] = system: ivyleaf morningglory (Ipomoea hederacea, IPOHE); experiment: as above; details: phytotoxicity rating 0-100 (0 no damage, 100 complete death), 14 days after application
Summary of the method: as §2

[15] = system: velvetleaf (Abutilon theophrasti, ABUTH); experiment: as above; details: phytotoxicity rating 0-100 (0 no damage, 100 complete death), 14 days after application
Summary of the method: as §2

[16] = system: redroot pigweed (Amaranthus retroflexus, AMARE); experiment: as above; details: phytotoxicity rating 0-100 (0 no damage, 100 complete death), 14 days after application
Summary of the method: as §2

[17] = system: green foxtail (Setaria viridis, SETVI); experiment: as above; details: phytotoxicity rating 0-100 (0 no damage, 100 complete death), 14 days after application
Summary of the method: as §2

[18] = system: large crabgrass (Digitaria sanguinalis, DIGSA); experiment: as above; details: phytotoxicity rating 0-100 (0 no damage, 100 complete death), 14 days after application
Summary of the method: as §2

[19] = system: upland rice (Oryza sp., var. Tebonnet, RICE); experiment: Post-emerge test, crop safety; details: phytotoxicity rating 0-100 (0 no damage, 100 complete death), 14 days after application
Summary of the method: as §1

[20] = system: field corn (Zea mays L., var. Dekalb 535, CORN); experiment: Post-emerge test, crop safety; details: phytotoxicity rating 0-100 (0 no damage, 100 complete death), 14 days after application
Summary of the method: as §1

[21] = system: upland rice (Oryza sp., var. Tebonnet, RICE); experiment: Pre-emerge test, crop safety; details: pre-emerge, rated 14 days after application, 0 = no damage, 100 = complete death
Summary of the method: (§3)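 Applied at 15–1000 g ai/ha from acetone in 187 l/ha spray volume. Post-emergence applications included 0.25% v/v non-ionic surfactant and reached plants sown 8–21 days before. Pre-emergence applications were incorporated by surface watering. Efficacy or crop damage was rated on a 0–100 scale after 14 days.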

[22] = system: field corn (Zea mays L., var. Dekalb 535, CORN); experiment: Pre-emerge test, crop safety; details: pre-emerge, rated 14 days after application, 0 = no damage, 100 = complete death
Summary of the method: as §3

COc1c(Cl)cc(F)c(-n2c(=O)cc(C(F)(F)F)n(C)c2=O)c1NC(=O)C(C)(C)C [2-3]
Pre-emerge Herbicidal Activity CHEAL (phytotoxicity rating, scale 0-100) ([1]; 63 g ai/ha): 100 | Pre-emerge Herbicidal Activity CHEAL (phytotoxicity rating, scale 0-100) ([1]; 250 g ai/ha): 100 | Pre-emerge Herbicidal Activity ECHCG (phytotoxicity rating, scale 0-100) ([2]; 63 g ai/ha): 0 | Pre-emerge Herbicidal Activity ECHCG (phytotoxicity rating, scale 0-100) ([2]; 250 g ai/ha): 40 | Pre-emerge Herbicidal Activity SORHA (phytotoxicity rating, scale 0-100) ([3]; 63 g ai/ha): 10 | Pre-emerge Herbicidal Activity SORHA (phytotoxicity rating, scale 0-100) ([3]; 250 g ai/ha): 30 | Pre-emerge Herbicidal Activity CASOB (phytotoxicity rating, scale 0-100) ([4]; 63 g ai/ha): 60 | Pre-emerge Herbicidal Activity CASOB (phytotoxicity rating, scale 0-100) ([4]; 250 g ai/ha): 100 | Pre-emerge Herbicidal Activity IPOHE (phytotoxicity rating, scale 0-100) ([5]; 63 g ai/ha): 60 | Pre-emerge Herbicidal Activity IPOHE (phytotoxicity rating, scale 0-100) ([5]; 250 g ai/ha): 100 | Pre-emerge Herbicidal Activity ABUTH (phytotoxicity rating, scale 0-100) ([6]; 63 g ai/ha): 100 | Pre-emerge Herbicidal Activity ABUTH (phytotoxicity rating, scale 0-100) ([6]; 250 g ai/ha): 100 | Pre-emerge Herbicidal Activity SETVI (phytotoxicity rating, scale 0-100) ([7]; 63 g ai/ha): 90 | Pre-emerge Herbicidal Activity SETVI (phytotoxicity rating, scale 0-100) ([7]; 250 g ai/ha): 100 | Pre-emerge Herbicidal Activity DIGSA (phytotoxicity rating, scale 0-100) ([8]; 63 g ai/ha): 30 | Pre-emerge Herbicidal Activity DIGSA (phytotoxicity rating, scale 0-100) ([8]; 250 g ai/ha): 60 | Pre-emerge Herbicidal Activity AMARE (phytotoxicity rating, scale 0-100) ([9]; 63 g ai/ha): 100 | Pre-emerge Herbicidal Activity AMARE (phytotoxicity rating, scale 0-100) ([9]; 250 g ai/ha): 100 | Post-emerge Herbicidal Activity CHEAL ([10]; 63 g ai/ha): 30 | Post-emerge Herbicidal Activity CHEAL ([10]; 250 g ai/ha): 30 | Post-emerge Herbicidal Activity ECHCG ([11]; 63 g ai/ha): 0 | Post-emerge Herbicidal Activity ECHCG ([11]; 250 g ai/ha): 0 | Post-emerge Herbicidal Activity SORHA ([12]; 63 g ai/ha): 0 | Post-emerge Herbicidal Activity SORHA ([12]; 250 g ai/ha): 0 | Post-emerge Herbicidal Activity CASOB ([13]; 63 g ai/ha): 0 | Post-emerge Herbicidal Activity CASOB ([13]; 250 g ai/ha): 0 | Post-emerge Herbicidal Activity IPOHE ([14]; 63 g ai/ha): 60 | Post-emerge Herbicidal Activity IPOHE ([14]; 250 g ai/ha): 100 | Post-emerge Herbicidal Activity ABUTH ([15]; 63 g ai/ha): 80 | Post-emerge Herbicidal Activity ABUTH ([15]; 250 g ai/ha): 100 | Post-emerge Herbicidal Activity AMARE ([16]; 63 g ai/ha): 10 | Post-emerge Herbicidal Activity AMARE ([16]; 250 g ai/ha): 40 | Post-emerge Herbicidal Activity SETVI ([17]; 63 g ai/ha): 0 | Post-emerge Herbicidal Activity SETVI ([17]; 250 g ai/ha): 0 | Post-emerge Herbicidal Activity DIGSA ([18]; 63 g ai/ha): 0 | Post-emerge Herbicidal Activity DIGSA ([18]; 250 g ai/ha): 0 | Post-emerge Herbicidal Activity RICE (crop damage) ([19]; 63 g ai/ha): 0 | Post-emerge Herbicidal Activity RICE (crop damage) ([19]; 250 g ai/ha): 40 | Post-emerge Herbicidal Activity CORN (crop damage) ([20]; 63 g ai/ha): 0 | Post-emerge Herbicidal Activity CORN (crop damage) ([20]; 250 g ai/ha): 10 | Pre-emerge crop damage RICE (phytotoxicity rating, scale 0-100) ([21]; 63 g ai/ha): 20 | Pre-emerge crop damage RICE (phytotoxicity rating, scale 0-100) ([21]; 250 g ai/ha): 50 | Pre-emerge crop damage CORN (phytotoxicity rating, scale 0-100) ([22]; 63 g ai/ha): 0 | Pre-emerge crop damage CORN (phytotoxicity rating, scale 0-100) ([22]; 250 g ai/ha): 30
